pEC50: −log10 of the molar value.
How the values were obtained:
RhoA [1] = assay: NanoBiT-RhoA assay in MDA-MB-231 cells (endogenously expressed GPCRs); assay type: cell-based, human; conditions: thrombin 1000 U L^−1
Experimental: (§4) The transfected cells were harvested, seeded in a white 96-well plate and loaded with 10 μM CTZ in the same manner described in the NanoBiT-G-protein dissociation assay. After measuring an initial luminescent signal, test compounds were added to the cells. Then, 3-5 min later, luminescent signals were measured and fold-change values were plotted as described above.

RhoA [2] = assay: NanoBiT-RhoA assay in PC-3 cells (endogenously expressed GPCRs); assay type: cell-based, human; conditions: thrombin 1000 U L^−1
Experimental: as §4

RhoA [3] = assay: Active RhoA pulldown assay in Cal27 cells; assay type: cell-based; conditions: 10 μM CP-55940, 1 μM Ang II, 5 min
Experimental: (§1) HN12 cells and Cal27 cells were cultured to 50% confluency, and then serum starved overnight. To induce RhoA activation, cells were treated with 5 μM LPA, 1 μM Ang II, or 10 μM CP-55940 for 5 min. Active RhoA levels were measured using the RhoA Pull-Down Activation Assay Biochem Kit (bead pull-down format; Cytoskeleton) following the manufacturer instruction using a modified lysis buffer (50 mM Tris-HCl (pH 7.2), 500 mM NaCl, 10 mM MgCl2, 0.1% SDS, 1% NP-40). Briefly, after stimulation, samples were lysed and protein concentrations were quantified using DC Protein Assay (BioRad). Samples were adjusted to the same concentration with lysis buffer and 500 μg of each protein lysate was added to 15 μL GST-tagged Rhotekin-RBD bound to Sepharose beads. Samples were incubated while rocking at 4° C. for 1.5 h. Beads were then washed, eluted in Laemmli sample buffer, and analyzed by western blot using a mouse monoclonal anti-RhoA antibody (Cytoskeleton).

RhoA [4] = assay: Active RhoA pulldown assay in HN12 cells; assay type: cell-based; conditions: 10 μM CP-55940, 1 μM Ang II, 5 min
Experimental: as §1

CNR1 = CNR1 (Homo sapiens, UniProt P21554); conditions: HEK293 cells expressing CNR1
Experimental: as §4

M3D-GPR132/ICL3 [5] = target: T1, M3D-GPR132/ICL3 (Homo sapiens, UniProt P20309, A239G/DEL260-297/DEL301-447/DEL453-484/K449L/K485Q/T451A/Y149C); assay: NanoBiT-G-protein dissociation assay, M3D-GPR132/ICL3; assay type: cell-based
T1 construct: expressed in transfected cells; host or cells: parental HEK293 (NanoBiT-G-protein assay); ΔGq HEK293 (TGFα shedding assay)
T1 sequence (P20309 with tags, fused parts or gaps Y149C/A239G/DEL260-297/DEL301-447/K449L/T451A/DEL453-484/K485Q): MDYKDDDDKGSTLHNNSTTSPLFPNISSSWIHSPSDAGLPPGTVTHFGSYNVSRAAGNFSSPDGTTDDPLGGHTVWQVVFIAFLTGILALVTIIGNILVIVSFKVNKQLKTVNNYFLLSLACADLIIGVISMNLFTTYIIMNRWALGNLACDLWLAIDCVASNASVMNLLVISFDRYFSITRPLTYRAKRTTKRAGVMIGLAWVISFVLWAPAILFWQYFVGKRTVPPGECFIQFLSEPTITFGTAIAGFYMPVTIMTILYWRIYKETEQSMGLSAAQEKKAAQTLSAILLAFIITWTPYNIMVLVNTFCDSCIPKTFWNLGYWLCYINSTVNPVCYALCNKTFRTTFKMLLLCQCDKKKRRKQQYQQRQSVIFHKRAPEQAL
Experimental: (§2) Plasmid transfection was performed in a 6-well plate with a mixture of 100 ng Gα-Lg-encoding plasmid, 500 ng Sm-Gβ-encoding plasmid, 500 ng untagged Gγ2-encoding plasmid, 200 ng GPCR-encoding plasmid with or without 100 ng RIC8-encoding plasmid (per well, hereafter). Unless otherwise stated, the combination of following plasmid mixtures was used: Gαs-Lg, Sm-Gβ1, Gγ2 and RIC8B for NanoBiT-Gs; Gαi1-Lg, Sm-Gβ5 and Gγ2 for NanoBiT-Gi1; Gαi2-Lg, Sm-Gβ3 and Gγ2 for NanoBiT-Gi2; Gαi3-Lg, Sm-Gβ3 and Gγ2 for NanoBiT-Gi3; Gαo-Lg, Sm-Gβ1 and Gγ2 for NanoBiT-Go; Gαq-Lg, Sm-Gβ1, Gγ2 and RIC8A for NanoBiT-Gq; Gα12-Lg, Sm-Gβ1, Gγ2 and RIC8A for NanoBiT-G12; Gα13-Lg, Sm-Gβ1, Gγ2 and RIC8A for NanoBiT-G13. After 1-day culture, the transfected cells were harvested with 1 mL of 0.53 mM EDTA-containing Dulbecco's PBS (D-PBS), followed by addition of 2 mL the HEPES-containing HBSS. The cells were pelleted by centrifugation at 190 g for 5 min and resuspended in 2 mL of the 0.01% BSA- and 5 mM HEPES (pH 7.4)-containing HBSS (assay buffer). The cell suspension was seeded in a 96-well culture white plate (Greiner Bio-One) at a volume of 80 μl (per well hereafter) and loaded with 20 μl of 50 μM coelenterazine (Carbosynth) solution diluted in the assay buffer. After 2-h incubation with coelenterazine at room temperature, background luminescent signals were measured using a luminescent microplate reader (SpectraMax L, Molecular Devices). The inventors note that incubation time with coelenterazine can be shortened, but an effect of baseline drift should be taken into account (FIG. 14C-E). Test compound (6×, diluted in the assay buffer) was manually added to the cells (20 μl). Luminescent signals were measured 3-5 min after ligand addition and divided by the initial count. The ligand-induced signal ratio was normalized to that treated with vehicle. The consequent fold-change values were fitted to a four-parameter sigmoidal concentration-response described above.

[6] = tested on: DREADDs (M3D, M4D, M3D-Gs, M3D-GPR183/ICL3, M3D-GPR132/ICL3); assay: NanoBiT-G-protein dissociation assay, DREADD panel with titrated CNO; assay type: cell-based, human; conditions: all of the DREADDs, HEK293 cells, read-out: EC50 values of CNO for each primary-coupling G-protein
Experimental: as §2, with “The cell suspension was seeded in a 96-well culture white plate (Greiner Bio-One) at a volume of 80 μl (per well hereafter) and loaded with 20 μl of 50 μM coelenterazine (Carbosynth) solution diluted in the assay buffer.” left out, “The inventors note that incubation time with coelenterazine can be shortened, but an effect of baseline drift should be taken into account (FIG. 14C-E). Test compound (6×, diluted in the assay buffer) was manually added to the cells (20 μl).” left out, “The ligand-induced signal ratio was normalized to that treated with vehicle. The consequent fold-change values were fitted to a four-parameter sigmoidal concentration-response described above.” left out

M3D-NMBR/ICL3 = assay: NanoBiT-G-protein dissociation assay, M3D-NMBR/ICL3; assay type: cell-based, human; conditions: 10 μM CNO; parental HEK293 cells
Experimental: as §2, with “The cell suspension was seeded in a 96-well culture white plate (Greiner Bio-One) at a volume of 80 μl (per well hereafter) and loaded with 20 μl of 50 μM coelenterazine (Carbosynth) solution diluted in the assay buffer.” left out, “The inventors note that incubation time with coelenterazine can be shortened, but an effect of baseline drift should be taken into account (FIG. 14C-E). Test compound (6×, diluted in the assay buffer) was manually added to the cells (20 μl).” left out, “The ligand-induced signal ratio was normalized to that treated with vehicle. The consequent fold-change values were fitted to a four-parameter sigmoidal concentration-response described above.” left out

M3D-GPR183/ICL3 [7] = target: T2, M3D-GPR183/ICL3 (Homo sapiens, UniProt P20309, A239G/DEL264-389/DEL400-485/E393L/E394T/G397S/K260R/L396K/M398G/R261T/T262A/V391N/Y149C); assay: TGFα shedding assay in ΔGq HEK293 cells, M3D-GPR183/ICL3; assay type: cell-based; conditions: 10 μM CNO
T2 construct: expressed in transfected cells; host or cells: parental HEK293 (NanoBiT-G-protein assay); ΔGq HEK293 (TGFα shedding assay)
T2 sequence (P20309 with tags, fused parts or gaps Y149C/A239G/K260R/R261T/T262A/DEL264-389/V391N/E393L/E394T/L396K/G397S/M398G/DEL400-485): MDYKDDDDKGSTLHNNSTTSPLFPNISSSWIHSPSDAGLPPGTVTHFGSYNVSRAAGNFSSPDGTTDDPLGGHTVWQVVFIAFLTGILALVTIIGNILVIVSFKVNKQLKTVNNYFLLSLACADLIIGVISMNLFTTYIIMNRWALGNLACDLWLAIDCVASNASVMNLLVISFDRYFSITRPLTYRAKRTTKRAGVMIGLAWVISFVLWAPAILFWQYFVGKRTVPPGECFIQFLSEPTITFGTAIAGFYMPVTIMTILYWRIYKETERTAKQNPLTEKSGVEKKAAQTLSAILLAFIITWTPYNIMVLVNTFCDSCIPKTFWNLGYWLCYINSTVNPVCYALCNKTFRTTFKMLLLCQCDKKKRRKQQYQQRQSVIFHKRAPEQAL
Experimental: (§3) The TGFα shedding assay was performed as described previously (Inoue et al., 2012) with minor modifications. Plasmid transfection was performed in a 6-well plate with a mixture of 500 ng AP-TGFα-encoding plasmid, 200 ng GPCR-encoding plasmid with or without 100 ng Gα-encoding plasmid (per well, hereafter). After 1-day culture, the transfected cells were harvested by trypsinization, pelleted by centrifugation at 190 g for 5 min and washed once with Hank's Balanced Salt Solution (HBSS) containing 5 mM HEPES (pH 7.4). After centrifugation, the cells were resuspended in 6 ml of the HEPES-containing HBSS. […] The cell suspension was seeded in a 96-well culture plate (cell plate) at a volume of 90 μl (per well hereafter) and incubated for 30 min in a 5% CO2 incubator at 37° C. The cells were treated with a GPCR ligand (10×, diluted in HBSS containing 5 mM HEPES (pH 7.4) and 0.01% (w/v) bovine serum albumin (BSA, fatty acid-free and protease-free grade; Serva)). After spinning the cell plates, conditioned media (80 μl) was transferred to an empty 96-well plate (conditioned media (CM) plate). […] Absorbance at 405 nm (Ab405) of the plates was measured, using a microplate reader (SpectraMax 340 PC384, Molecular Devices), before and after 1-h or 2-h incubation at room temperature. Ligand-induced AP-TGFα release was calculated as described previously. […]

M3D-P2RY10/ICL3 = assay: NanoBiT-G-protein dissociation assay, M3D-P2RY10/ICL3; assay type: cell-based, human; conditions: 10 μM CNO; parental HEK293 cells
Experimental: as §2, with “The cell suspension was seeded in a 96-well culture white plate (Greiner Bio-One) at a volume of 80 μl (per well hereafter) and loaded with 20 μl of 50 μM coelenterazine (Carbosynth) solution diluted in the assay buffer.” left out, “The inventors note that incubation time with coelenterazine can be shortened, but an effect of baseline drift should be taken into account (FIG. 14C-E). Test compound (6×, diluted in the assay buffer) was manually added to the cells (20 μl).” left out, “The ligand-induced signal ratio was normalized to that treated with vehicle. The consequent fold-change values were fitted to a four-parameter sigmoidal concentration-response described above.” left out

M3D-GPR183/ICL3 [8] = target: T2, M3D-GPR183/ICL3; assay: NanoBiT-G-protein dissociation assay, M3D-GPR183/ICL3; assay type: cell-based
Experimental: as §2

M3D-LTB4R2/ICL3 = assay: NanoBiT-G-protein dissociation assay, M3D-LTB4R2/ICL3; assay type: cell-based, human; conditions: 10 μM CNO; parental HEK293 cells
Experimental: as §2, with “The cell suspension was seeded in a 96-well culture white plate (Greiner Bio-One) at a volume of 80 μl (per well hereafter) and loaded with 20 μl of 50 μM coelenterazine (Carbosynth) solution diluted in the assay buffer.” left out, “The inventors note that incubation time with coelenterazine can be shortened, but an effect of baseline drift should be taken into account (FIG. 14C-E). Test compound (6×, diluted in the assay buffer) was manually added to the cells (20 μl).” left out, “The ligand-induced signal ratio was normalized to that treated with vehicle. The consequent fold-change values were fitted to a four-parameter sigmoidal concentration-response described above.” left out

M3D-GPR132/ICL3 [9] = target: T1, M3D-GPR132/ICL3; assay: TGFα shedding assay in ΔGq HEK293 cells, M3D-GPR132/ICL3; assay type: cell-based; conditions: 10 μM CNO
Experimental: as §3

[10] = 10 μM CNO, parental HEK293 cells
[11] = titrated CNO, NanoBiT-Gs, Go, Gq, G12 compared

Sequence of CNR1 (P21554 whole entry): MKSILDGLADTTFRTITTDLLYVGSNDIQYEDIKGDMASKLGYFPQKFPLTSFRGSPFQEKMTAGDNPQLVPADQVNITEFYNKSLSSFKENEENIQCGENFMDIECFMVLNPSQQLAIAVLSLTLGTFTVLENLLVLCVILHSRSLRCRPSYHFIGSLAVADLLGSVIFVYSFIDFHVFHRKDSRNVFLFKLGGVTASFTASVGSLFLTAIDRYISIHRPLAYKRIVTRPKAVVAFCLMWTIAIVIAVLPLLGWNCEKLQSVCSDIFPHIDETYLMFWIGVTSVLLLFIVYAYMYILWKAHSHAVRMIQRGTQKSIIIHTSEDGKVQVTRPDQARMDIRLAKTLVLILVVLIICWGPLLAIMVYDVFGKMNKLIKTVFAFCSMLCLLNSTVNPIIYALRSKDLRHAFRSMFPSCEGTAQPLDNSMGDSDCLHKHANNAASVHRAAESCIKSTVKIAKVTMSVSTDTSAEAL

thrombin
RhoA activation (RhoA [1]): activated RhoA
RhoA activation (RhoA [2]): activated RhoA

CCCCCCC(C)(C)c1ccc([C@@H]2C[C@H](O)CC[C@H]2CCCO)c(O)c1 [CP-55940]
RhoA activation (GTP-bound RhoA pulldown) (RhoA [3]): induced activation of RhoA
RhoA activation (GTP-bound RhoA pulldown) (RhoA [4]): induced activation of RhoA
RhoA activation (CNR1): RhoA activation occurred

angiotensin II (DRVYIHPF; Angiotensin-2; UniProt P01019 25-32, looked up) [Ang II, endogenous ligand of AGTR1]
RhoA activation (GTP-bound RhoA pulldown) (RhoA [3]): induced activation of RhoA
RhoA activation (GTP-bound RhoA pulldown) (RhoA [4]): induced activation of RhoA

C[N+]1([O-])CCN(C2=Nc3cc(Cl)ccc3Nc3ccccc32)CC1 [CNO, clozapine-N-oxide]
NanoBiT-G13 dissociation signal (M3D-GPR132/ICL3 [5]; 10 μM CNO): lack of G13 activation
G12 and Go coupling (NanoBiT-G12 / NanoBiT-Go screening) (M3D-GPR132/ICL3 [5]; [10]): coupled to G12 and not to Go
G12 dissociation signal (M3D-GPR132/ICL3 [5]; [11]): robust G12 dissociation signal
pEC50 [6]: 6.00 to 7.00
G12 and Go coupling (NanoBiT-G12 / NanoBiT-Go screening) (M3D-NMBR/ICL3): coupled to G12 and not to Go
G12 signaling (TGFα shedding response) (M3D-GPR183/ICL3 [7]): significant G12 signaling
G12 and Go coupling (NanoBiT-G12 / NanoBiT-Go screening) (M3D-P2RY10/ICL3): coupled to G12 and not to Go
NanoBiT-G13 dissociation signal (M3D-GPR183/ICL3 [8]; 10 μM CNO): lack of G13 activation
G12 and Go coupling (NanoBiT-G12 / NanoBiT-Go screening) (M3D-GPR183/ICL3 [8]; [10]): coupled to G12 and not to Go
G12 dissociation signal (M3D-GPR183/ICL3 [8]; [11]): robust G12 dissociation signal
G12 and Go coupling (NanoBiT-G12 / NanoBiT-Go screening) (M3D-LTB4R2/ICL3): induced both G12 and Go coupling with a higher Go dissociation signal
G12 signaling (TGFα shedding response) (M3D-GPR132/ICL3 [9]): significant G12 signaling

— patent publication US12612442B2, “G12-specific designer receptor exclusively activated by designer drugs” (CELL NETWORKS GMBH, priority 2019, dated 2026)
